Publication PMC6694107, “Characterization and overproduction of cell-associated cholesterol oxidase ChoD from Streptomyces lavendulae YAKB-15” (Scientific Reports, 2019)

Tested on: T1, ChoD
T1 construct: ORF 547 aa including TAT signal; FAD enzyme
Assay: ABTS/peroxidase coupled H2O2 assay, […] nm, initial rates
Assay type: biochemical, Streptomyces lavendulae
Conditions: pH 7 sodium-potassium phosphate, Triton X-100, ethanol (general assay); 8.4 nM enzyme, 4-168 µM cholesterol

Compound `CC(C)CCC[C@@H](C)[C@H]1CC[C@H]2[C@@H]3CC=C4C[C@@H](O)CC[C@]4(C)[C@H]3CC[C@]12C` [cholesterol] has a Km of 15.9 µM.
